Assay [1] can be described thus: Cytotoxicity against human FRO cells assessed as reduction in cell viability incubated for 72 hrs by Cell-titer 96 aqueous one assay. The class given is functional, cell-based.
Assay [2] can be described thus: Cytotoxicity against human FRO cells assessed as reduction in cell viability in presence of shHMGA1 incubated for 72 hrs by Cell-titer 96 aqueous one assay. The class given is functional, cell-based.
Assay [3] in a line: Cytotoxicity against human ACT1 cells assessed as reduction in cell viability incubated for 72 hrs by Cell-titer 96 aqueous one assay. The class given is functional, cell-based.
A further assay has as its system 8505C. Briefly: Cytotoxicity against human 8505C cells assessed as reduction in cell viability incubated for 72 hrs by Cell-titer 96 aqueous one assay. The class given is functional, cell-based.
Assay [4] in a line: Potency index, ratio of IC50 for mycalol to IC50 for test compound against human FRO cells assessed as reduction in cell viability incubated for 72 hrs by Cell-titer 96 aqueous one assay. The class given is functional.
Assay [5] in a line: Cytotoxicity against human FRTL5 cells assessed as reduction in cell viability incubated for 72 hrs by Cell-titer 96 aqueous one assay. Conditions: FRTL-5, 72 h. The class given is cell-based.

Usually IC50 stands for the concentration needed to halve the response being measured. Regarding `CCCCC[C@H](CCCCCCCCCC[C@H](O)[C@H](O)CC[C@H](O)[C@H](O)CCOC[C@H](O)CO)OC(C)=O`, the IC50 in assay [1] was found to be 16 µM.
With `CCCCCCC[C@H](CCCCCCCCCC[C@H](O)[C@H](O)CC[C@H](O)[C@H](O)CCOC[C@H](O)CO)OC(=O)C[C@H](C)O`, the IC50 in assay [1] was 16 µM.
Same read-out and setting: then `CCCCCCCC[C@H](CCCCCCCCCC[C@H](O)[C@H](O)CC[C@H](O)[C@H](O)CCOC[C@H](O)CO)OC(=O)C[C@H](C)O`, with 20 µM; and `CCCCCCCCC[C@H](CCCCCCCCCC[C@H](O)[C@H](O)CC[C@H](O)[C@H](O)CCOC[C@H](O)CO)OC(=O)C[C@H](C)O`, with 4.7 µM.
For the molecule `CCCCCCC[C@H](CCCCCCCCCC[C@H](O)[C@H](O)CC[C@H](O)[C@H](O)CCOC[C@H](O)CO)OC(C)=O` (stereo in doubt; form 1), the half-inhibitory concentration (IC50) in assay [1] came to 2.3 µM; in assay [2] (Homo sapiens, 72 h), 3.3 µM; in assay [3] (Homo sapiens, 72 h), 4.8 µM; with 8505C (Homo sapiens, 8505C, 72 h) it was 2.6 µM. In addition, the “Ratio IC50” value in assay [4] is 6.
Consider `CCCCCCC[C@H](CCCCCCCCCC[C@H](O)[C@H](O)CC[C@H](O)[C@H](O)CCOC[C@H](O)CO)OC(C)=O` (stereo in doubt; form 2), for which the IC50 was 3.4 µM in assay [2], 5.1 µM in assay [3], 2.1 µM with 8505C (8505c) and above 40 µM in assay [5].

Source of the values: ChEMBL document CHEMBL4177533, “Identification and Synthesis of Mycalol Analogues with Improved Potency against Anaplastic Thyroid Carcinoma Cell Lines” (J Nat Prod, 2017).
